Source: patent US12043599B2, “Herbicidal compounds” (SYNGENTA PARTICIPATIONS AG, priority 2018, dated 2024)

Experiments:
Type in all cases: in vivo
Conditions in all cases: 250 g/h, evaluated after 13 days
[1] = tested on: Lolium perenne (LOLPE); assay: Post-emergence herbicidal glasshouse test, percentage damage
Outline: (§1)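 Compounds applied at 250 g/h, formulated in 50:50 acetone/water plus 0.5% Tween 20, onto potted plants one day (pre-emergence) or 8 days (post-emergence) after sowing. Scoring of damage at day 13 used a five-point scale.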

[2] = tested on: Alopecurus myosuroides (ALOMY); assay: as above
Outline: as §1

[3] = tested on: Echinochloa crus-galli (ECHCG); assay: as above
Outline: as §1

[4] = tested on: Avena fatua (AVEFA); assay: as above
Outline: as §1

[5] = tested on: Lolium perenne (LOLPE); assay: Pre-emergence herbicidal glasshouse test, percentage damage
Outline: as §1

[6] = tested on: Alopecurus myosuroides (ALOMY); assay: as above
Outline: as §1

[7] = tested on: Echinochloa crus-galli (ECHCG); assay: as above
Outline: as §1

[8] = tested on: Setaria faberi (SETFA); assay: as above
Outline: as §1

[9] = tested on: Avena fatua (AVEFA); assay: as above
Outline: as §1

[10] = tested on: Setaria faberi (SETFA); assay: Post-emergence herbicidal glasshouse test, percentage damage
Outline: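 Wheat, barley and Setaria faberi were sprayed post-emergence after 8 days' growth (24/16 °C, 14 h light, 65% humidity) with compound in acetone/water (50:50) containing 0.5% Tween 20, at the indicated rates. On wheat, compounds were also applied with cloquintocet-mexyl at 50 g/ha. Damage was scored after 13 days on a five-point scale (5=80-100% to 1=0-19%).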

CC#Cc1cc(C)c(C2C(=O)CC3(CCN(C(=O)c4cnccn4)CC3)CC2=O)c(C)c1 [Compound A16]
LOLPE POST percentage damage (five point scale) [1]: 5 (5=80-100%)
ALOMY POST percentage damage (five point scale) [2]: 5 (5=80-100%)
ECHCG POST percentage damage (five point scale) [3]: 5 (5=80-100%)
AVEFA POST percentage damage (five point scale) [4]: 5 (5=80-100%)
LOLPE PRE percentage damage (five point scale) [5]: 5 (5=80-100%)
ALOMY PRE percentage damage (five point scale) [6]: 5 (5=80-100%)
ECHCG PRE percentage damage (five point scale) [7]: 5 (5=80-100%)
SETFA PRE percentage damage (five point scale) [8]: 5 (5=80-100%)
AVEFA PRE percentage damage (five point scale) [9]: 5 (5=80-100%)
SETFA POST percentage damage (five point scale) [10]: 5 (5=80-100%)

CC#Cc1cc(C)c(C2C(=O)CC3(CCN(C(=O)c4ccncn4)CC3)CC2=O)c(C)c1 [Compound A18]
LOLPE POST percentage damage (five point scale) [1]: 5 (5=80-100%)
ALOMY POST percentage damage (five point scale) [2]: 5 (5=80-100%)
ECHCG POST percentage damage (five point scale) [3]: 5 (5=80-100%)
AVEFA POST percentage damage (five point scale) [4]: 5 (5=80-100%)
LOLPE PRE percentage damage (five point scale) [5]: 5 (5=80-100%)
ALOMY PRE percentage damage (five point scale) [6]: 5 (5=80-100%)
ECHCG PRE percentage damage (five point scale) [7]: 5 (5=80-100%)
SETFA PRE percentage damage (five point scale) [8]: 5 (5=80-100%)
AVEFA PRE percentage damage (five point scale) [9]: 5 (5=80-100%)
SETFA POST percentage damage (five point scale) [10]: 5 (5=80-100%)

CC#Cc1cc(C)c(C2C(=O)CC3(CCN(C(=O)c4ncccn4)CC3)CC2=O)c(C)c1 [Compound A19]
LOLPE POST percentage damage (five point scale) [1]: 5 (5=80-100%)
ALOMY POST percentage damage (five point scale) [2]: 5 (5=80-100%)
ECHCG POST percentage damage (five point scale) [3]: 5 (5=80-100%)
AVEFA POST percentage damage (five point scale) [4]: 5 (5=80-100%)
LOLPE PRE percentage damage (five point scale) [5]: 5 (5=80-100%)
ALOMY PRE percentage damage (five point scale) [6]: 5 (5=80-100%)
ECHCG PRE percentage damage (five point scale) [7]: 5 (5=80-100%)
SETFA PRE percentage damage (five point scale) [8]: 5 (5=80-100%)
AVEFA PRE percentage damage (five point scale) [9]: 5 (5=80-100%)
SETFA POST percentage damage (five point scale) [10]: 5 (5=80-100%)

CC#Cc1cc(C)c(C2C(=O)CC3(CCN(C(=O)Nc4cccnc4)CC3)CC2=O)c(C)c1 [Compound A22]
LOLPE POST percentage damage (five point scale) [1]: 5 (5=80-100%)
ALOMY POST percentage damage (five point scale) [2]: 5 (5=80-100%)
ECHCG POST percentage damage (five point scale) [3]: 5 (5=80-100%)
AVEFA POST percentage damage (five point scale) [4]: 5 (5=80-100%)
LOLPE PRE percentage damage (five point scale) [5]: 5 (5=80-100%)
ALOMY PRE percentage damage (five point scale) [6]: 5 (5=80-100%)
ECHCG PRE percentage damage (five point scale) [7]: 5 (5=80-100%)
SETFA PRE percentage damage (five point scale) [8]: 5 (5=80-100%)
AVEFA PRE percentage damage (five point scale) [9]: 5 (5=80-100%)
SETFA POST percentage damage (five point scale) [10]: 5 (5=80-100%)

CC#Cc1cc(C)c(C2C(=O)CC3(CCN(c4ncccn4)CC3)CC2=O)c(C)c1 [Compound A37]
LOLPE POST percentage damage (five point scale) [1]: 5 (5=80-100%)
ALOMY POST percentage damage (five point scale) [2]: 5 (5=80-100%)
ECHCG POST percentage damage (five point scale) [3]: 5 (5=80-100%)
AVEFA POST percentage damage (five point scale) [4]: 5 (5=80-100%)
LOLPE PRE percentage damage (five point scale) [5]: 5 (5=80-100%)
ALOMY PRE percentage damage (five point scale) [6]: 5 (5=80-100%)
ECHCG PRE percentage damage (five point scale) [7]: 5 (5=80-100%)
SETFA PRE percentage damage (five point scale) [8]: 5 (5=80-100%)
AVEFA PRE percentage damage (five point scale) [9]: 4 (4=60-79%)
SETFA POST percentage damage (five point scale) [10]: 5 (5=80-100%)

CC#Cc1cc(C)c(C2C(=O)CC3(CCN(C(=O)C4CCOCC4)CC3)CC2=O)c(C)c1 [Compound A38]
LOLPE POST percentage damage (five point scale) [1]: 5 (5=80-100%)
ALOMY POST percentage damage (five point scale) [2]: 5 (5=80-100%)
ECHCG POST percentage damage (five point scale) [3]: 5 (5=80-100%)
AVEFA POST percentage damage (five point scale) [4]: 4 (4=60-79%)
LOLPE PRE percentage damage (five point scale) [5]: 5 (5=80-100%)
ALOMY PRE percentage damage (five point scale) [6]: 5 (5=80-100%)
ECHCG PRE percentage damage (five point scale) [7]: 5 (5=80-100%)
SETFA PRE percentage damage (five point scale) [8]: 5 (5=80-100%)
AVEFA PRE percentage damage (five point scale) [9]: 3 (3=40-59%)
SETFA POST percentage damage (five point scale) [10]: 5 (5=80-100%)

CC#Cc1cc(C)c(C2C(=O)CC3(CCN(S(=O)(=O)CC4COCCO4)CC3)CC2=O)c(C)c1 (stereo not drawn) [Compound A39]
LOLPE POST percentage damage (five point scale) [1]: 5 (5=80-100%)
ALOMY POST percentage damage (five point scale) [2]: 5 (5=80-100%)
ECHCG POST percentage damage (five point scale) [3]: 5 (5=80-100%)
AVEFA POST percentage damage (five point scale) [4]: 5 (5=80-100%)
LOLPE PRE percentage damage (five point scale) [5]: 5 (5=80-100%)
ALOMY PRE percentage damage (five point scale) [6]: 4 (4=60-79%)
ECHCG PRE percentage damage (five point scale) [7]: 5 (5=80-100%)
SETFA PRE percentage damage (five point scale) [8]: 5 (5=80-100%)
AVEFA PRE percentage damage (five point scale) [9]: 4 (4=60-79%)
SETFA POST percentage damage (five point scale) [10]: 5 (5=80-100%)

CC#Cc1cc(C)c(C2C(=O)CC3(CCN(C(=O)Nc4ccccn4)CC3)CC2=O)c(C)c1 [Compound A41]
LOLPE POST percentage damage (five point scale) [1]: 5 (5=80-100%)
ALOMY POST percentage damage (five point scale) [2]: 4 (4=60-79%)
ECHCG POST percentage damage (five point scale) [3]: 5 (5=80-100%)
AVEFA POST percentage damage (five point scale) [4]: 5 (5=80-100%)
LOLPE PRE percentage damage (five point scale) [5]: 5 (5=80-100%)
ALOMY PRE percentage damage (five point scale) [6]: 4 (4=60-79%)
ECHCG PRE percentage damage (five point scale) [7]: 5 (5=80-100%)
SETFA PRE percentage damage (five point scale) [8]: 5 (5=80-100%)
AVEFA PRE percentage damage (five point scale) [9]: 4 (4=60-79%)
SETFA POST percentage damage (five point scale) [10]: 5 (5=80-100%)

CC#Cc1cc(C)c(C2C(=O)CC3(CCN(S(=O)(=O)c4ccccn4)CC3)CC2=O)c(C)c1 [Compound A70]
LOLPE POST percentage damage (five point scale) [1]: 5 (5=80-100%)
ALOMY POST percentage damage (five point scale) [2]: 5 (5=80-100%)
ECHCG POST percentage damage (five point scale) [3]: 5 (5=80-100%)
AVEFA POST percentage damage (five point scale) [4]: 5 (5=80-100%)
LOLPE PRE percentage damage (five point scale) [5]: 5 (5=80-100%)
ALOMY PRE percentage damage (five point scale) [6]: 5 (5=80-100%)
ECHCG PRE percentage damage (five point scale) [7]: 5 (5=80-100%)
SETFA PRE percentage damage (five point scale) [8]: 5 (5=80-100%)
AVEFA PRE percentage damage (five point scale) [9]: 5 (5=80-100%)
SETFA POST percentage damage (five point scale) [10]: 5 (5=80-100%)
